Laboratory results published in US9833497B2, “Human originated EGF domain proteins and use of the same” (CHENGDU SOURCEBIO LIMITED-LIABILITY COMPANY, priority 2013, dated 2017).

What was measured:
Assay type in all cases: cell-based
E. coli DH5α = experiment: Antibacterial activity: MIC and growth curve against E. coli DH5α in 96-well plate; conditions: minimal inhibitory concentration against E. coli DH5α; 96-well plate, 5×10^5 CFU/mL, 37° C., judged after 8 h
Outline: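 MIC taken as lowest protein level with no bacterial growth, tracked by A600 every 30 min during 37 °C, 175 rpm culture. Two-fold protein series 50-12.5 μg/mL final, triplicate wells, against 5×10^5 CFU/mL of LB-washed mid-log cells.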

E. coli BL21 = experiment: MIC against Gram-negative bacteria: E. coli BL21
Outline: (§1)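 Two-fold serial dilutions of each purified human EGF domain protein, three replicate wells per level, were combined with bacteria at a final 5×10^5 CFU/mL in LB. Cultures were shaken at 175 rpm, 37° C. The MIC was taken as the minimum concentration preventing growth.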

Pseudomonas aeruginosa = experiment: MIC against Gram-negative bacteria: Pseudomonas aeruginosa
Outline: as §1

Klebsiella pneumonia = experiment: MIC against Gram-negative bacteria: Klebsiella pneumonia
Outline: as §1

Enterobacter cloacae = experiment: MIC against Gram-negative bacteria: Enterobacter cloacae
Outline: as §1

Aeromonas hydrophila = experiment: MIC against Gram-negative bacteria: Aeromonas hydrophila
Outline: as §1

Citrobacter diversus = experiment: MIC against Gram-negative bacteria: Citrobacter diversus
Outline: as §1

Moraxella catarrhalis = experiment: MIC against Gram-negative bacteria: Moraxella catarrhalis
Outline: as §1

Proteus mirabilis = experiment: MIC against Gram-negative bacteria: Proteus mirabilis
Outline: as §1

Proteus vulgaris = experiment: MIC against Gram-negative bacteria: Proteus vulgaris
Outline: as §1

Serratia marcescens = experiment: MIC against Gram-negative bacteria: Serratia marcescens
Outline: as §1

[1] = 96-well plate, 5×10^5 CFU/mL, 37° C., 10 h
[2] = 10 h cultivation at 37° C., 5×10^5 CFU/mL, two-fold serial dilution

PRT760 (KLDSCALGDHGCEHSCVSSEDSFVCQCFEGYILREDGKTCR; listed as Homo sapiens)
MIC (E. coli DH5α): 50 µg/mL
MIC (μg/mL) E. coli BL21 (E. coli BL21; E. coli BL21, 10 h cultivation at 37° C., 5×10^5 CFU/mL): 25 µg/mL
MIC (μg/mL) P. aeruginosa (Pseudomonas aeruginosa; P. aeruginosa, 10 h cultivation at 37° C., 5×10^5 CFU/mL): 12.5 µg/mL
MIC (μg/mL) K. pneumonia (Klebsiella pneumonia; K. pneumonia, 10 h cultivation at 37° C., 5×10^5 CFU/mL): 50 µg/mL
MIC (μg/mL) E. cloacae (Enterobacter cloacae; E. cloacae, 10 h cultivation at 37° C., 5×10^5 CFU/mL): 12.5 µg/mL
MIC (μg/mL) A. hydrophila (Aeromonas hydrophila; A. hydrophila, 10 h cultivation at 37° C., 5×10^5 CFU/mL): 50 µg/mL
MIC (μg/mL) C. diversus (Citrobacter diversus; C. diversus, 10 h cultivation at 37° C., 5×10^5 CFU/mL): 12.5 µg/mL
MIC (μg/mL) M. catarrhalis (Moraxella catarrhalis; M. catarrhalis, 10 h cultivation at 37° C., 5×10^5 CFU/mL): 50 µg/mL
MIC (μg/mL) P. mirabilis (Proteus mirabilis; P. mirabilis, 10 h cultivation at 37° C., 5×10^5 CFU/mL): 12.5 µg/mL
MIC (μg/mL) P. vulgaris (Proteus vulgaris; P. vulgaris, 10 h cultivation at 37° C., 5×10^5 CFU/mL): 50 µg/mL
MIC (μg/mL) S. marcescens (Serratia marcescens; S. marcescens, 10 h cultivation at 37° C., 5×10^5 CFU/mL): 12.5 µg/mL

PRT509 (CNCSTVGSLDFQCNVNTGQCNCHPKFSGAKCTECSRGHWNYPRCNL; listed as Homo sapiens)
MIC (E. coli DH5α): 12.5 µg/mL
MIC against E. coli BL21 (E. coli BL21; [1]): 25 µg/mL
MIC against P. aeruginosa (Pseudomonas aeruginosa; [1]): 12.5 µg/mL
MIC against K. pneumonia (Klebsiella pneumonia; [1]): 25 µg/mL
MIC against E. cloacae (Enterobacter cloacae; [1]): 12.5 µg/mL
MIC against A. hydrophila (Aeromonas hydrophila; [1]): 12.5 µg/mL
MIC against C. diversus (Citrobacter diversus; [1]): 12.5 µg/mL
MIC against M. catarrhalis (Moraxella catarrhalis; [1]): 12.5 µg/mL
MIC against P. mirabilis (Proteus mirabilis; [1]): 12.5 µg/mL
MIC against P. vulgaris (Proteus vulgaris; [1]): 12.5 µg/mL
MIC against S. marcescens (Serratia marcescens; [1]): 25 µg/mL

PRT621 (CQCNNNVDPSASGNCDRLTGRCLKCIHNTAGIYCDQCKAGYFGDPLAPNPADKCRA; listed as Homo sapiens)
MIC (E. coli DH5α): 50 µg/mL
MIC E. coli BL21 (E. coli BL21; [1]): 25 µg/mL
MIC P. aeruginosa (Pseudomonas aeruginosa; [1]): 50 µg/mL
MIC K. pneumonia (Klebsiella pneumonia; [1]): 25 µg/mL
MIC E. cloacae (Enterobacter cloacae; [1]): 50 µg/mL
MIC A. hydrophila (Aeromonas hydrophila; [1]): 25 µg/mL
MIC C. diversus (Citrobacter diversus; [1]): 50 µg/mL
MIC M. catarrhalis (Moraxella catarrhalis; [1]): 25 µg/mL
MIC P. mirabilis (Proteus mirabilis; [1]): 50 µg/mL
MIC P. vulgaris (Proteus vulgaris; [1]): 25 µg/mL
MIC S. marcescens (Serratia marcescens; [1]): 50 µg/mL

PRT896 (EVNECNSNPCVHGACRDSLNGYKCDCDPGWSGTNCD; listed as Homo sapiens)
MIC (E. coli DH5α): 25 µg/mL
MIC (E. coli BL21; E. coli BL21, 10 h cultivation at 37° C.): 50 µg/mL
MIC (Pseudomonas aeruginosa; P. aeruginosa, 10 h cultivation at 37° C.): 25 µg/mL
MIC (Klebsiella pneumonia; K. pneumonia, 10 h cultivation at 37° C.): 12.5 µg/mL
MIC (Enterobacter cloacae; E. cloacae, 10 h cultivation at 37° C.): 50 µg/mL
MIC (Aeromonas hydrophila; A. hydrophila, 10 h cultivation at 37° C.): 12.5 µg/mL
MIC (Citrobacter diversus; C. diversus, 10 h cultivation at 37° C.): 50 µg/mL
MIC (Moraxella catarrhalis; M. catarrhalis, 10 h cultivation at 37° C.): 12.5 µg/mL
MIC (Proteus mirabilis; P. mirabilis, 10 h cultivation at 37° C.): 25 µg/mL
MIC (Proteus vulgaris; P. vulgaris, 10 h cultivation at 37° C.): 50 µg/mL
MIC (Serratia marcescens; S. marcescens, 10 h cultivation at 37° C.): 12.5 µg/mL

PRT1167 (NINDCESNPCRNGGTCIDGVNSYKCICSDGWEGAYCE; listed as Homo sapiens)
MIC (E. coli DH5α): 50 µg/mL
MIC E. coli BL21 (E. coli BL21; [2]): 25 µg/mL
MIC P. aeruginosa (Pseudomonas aeruginosa; [2]): 12.5 µg/mL
MIC K. pneumonia (Klebsiella pneumonia; [2]): 25 µg/mL
MIC E. cloacae (Enterobacter cloacae; [2]): 50 µg/mL
MIC A. hydrophila (Aeromonas hydrophila; [2]): 25 µg/mL
MIC C. diversus (Citrobacter diversus; [2]): 12.5 µg/mL
MIC M. catarrhalis (Moraxella catarrhalis; [2]): 25 µg/mL
MIC P. mirabilis (Proteus mirabilis; [2]): 50 µg/mL
MIC P. vulgaris (Proteus vulgaris; [2]): 25 µg/mL
MIC S. marcescens (Serratia marcescens; [2]): 12.5 µg/mL

PRT1222 (SVNYCECNPCFNGGSCQSGVDSYYCHCPFGVFGKHCE; listed as Homo sapiens)
MIC (E. coli DH5α): 12.5 µg/mL
MIC against E. coli BL21 (E. coli BL21; E. coli BL21, 96-well plate, 5×10^5 CFU/mL, 37° C., 10 h): 25 µg/mL
MIC against P. aeruginosa (Pseudomonas aeruginosa; Pseudomonas aeruginosa, 96-well plate, 5×10^5 CFU/mL, 37° C., 10 h): 50 µg/mL
MIC against K. pneumonia (Klebsiella pneumonia; Klebsiella pneumonia, 96-well plate, 5×10^5 CFU/mL, 37° C., 10 h): 12.5 µg/mL
MIC against E. cloacae (Enterobacter cloacae; Enterobacter cloacae, 96-well plate, 5×10^5 CFU/mL, 37° C., 10 h): 25 µg/mL
MIC against A. hydrophila (Aeromonas hydrophila; Aeromonas hydrophila, 96-well plate, 5×10^5 CFU/mL, 37° C., 10 h): 50 µg/mL
MIC against C. diversus (Citrobacter diversus; Citrobacter diversus, 96-well plate, 5×10^5 CFU/mL, 37° C., 10 h): 12.5 µg/mL
MIC against M. catarrhalis (Moraxella catarrhalis; Moraxella catarrhalis, 96-well plate, 5×10^5 CFU/mL, 37° C., 10 h): 25 µg/mL
MIC against P. mirabilis (Proteus mirabilis; Proteus mirabilis, 96-well plate, 5×10^5 CFU/mL, 37° C., 10 h): 50 µg/mL
MIC against P. vulgaris (Proteus vulgaris; Proteus vulgaris, 96-well plate, 5×10^5 CFU/mL, 37° C., 10 h): 25 µg/mL
MIC against S. marcescens (Serratia marcescens; Serratia marcescens, 96-well plate, 5×10^5 CFU/mL, 37° C., 10 h): 12.5 µg/mL

PRT624 (CRCSPLGAASAQCHENGTCVCRPGFEGYKCDRCHDNFFLTADGTHCQQC; listed as Homo sapiens)
MIC (E. coli DH5α): 25 µg/mL
MIC E. coli BL21 (E. coli BL21; [1]): 100 µg/mL
MIC P. aeruginosa (Pseudomonas aeruginosa; [1]): 25 µg/mL
MIC K. pneumonia (Klebsiella pneumonia; [1]): 50 µg/mL
MIC E. cloacae (Enterobacter cloacae; [1]): 25 µg/mL
MIC A. hydrophila (Aeromonas hydrophila; [1]): 12.5 µg/mL
MIC C. diversus (Citrobacter diversus; [1]): 25 µg/mL
MIC M. catarrhalis (Moraxella catarrhalis; [1]): 12.5 µg/mL
MIC P. mirabilis (Proteus mirabilis; [1]): 25 µg/mL
MIC P. vulgaris (Proteus vulgaris; [1]): 12.5 µg/mL
MIC S. marcescens (Serratia marcescens; [1]): 25 µg/mL
